IC50 data for 28 compounds are collected here from US7511065B2, “Mixed lineage kinase modulators” (Eli Lilly and Company, priority 2002, dated 2009).

SMILES strings stand for the structures. Counter-ions that a name gives are not always drawn.

This test deals with T1, MLK-7 (Homo sapiens, UniProt Q9NYL2).
T1 construct: GST; His tag; made in house; host or cells: Sf9 insect cells (baculovirus, pVL1392)
T1 sequence (Q9NYL2 1-455 isoform Q9NYL2-2): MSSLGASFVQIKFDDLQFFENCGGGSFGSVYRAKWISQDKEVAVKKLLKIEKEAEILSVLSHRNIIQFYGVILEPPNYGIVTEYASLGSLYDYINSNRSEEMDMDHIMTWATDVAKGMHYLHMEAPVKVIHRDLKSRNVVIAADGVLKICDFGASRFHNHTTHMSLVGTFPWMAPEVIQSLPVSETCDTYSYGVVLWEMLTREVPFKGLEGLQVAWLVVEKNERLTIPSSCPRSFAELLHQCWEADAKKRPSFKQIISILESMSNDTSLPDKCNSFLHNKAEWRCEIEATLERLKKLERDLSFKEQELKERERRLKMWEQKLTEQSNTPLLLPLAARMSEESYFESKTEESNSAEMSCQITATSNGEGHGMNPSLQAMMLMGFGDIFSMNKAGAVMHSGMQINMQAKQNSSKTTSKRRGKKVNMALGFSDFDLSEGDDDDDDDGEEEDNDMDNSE
Description: In vitro assay of purified MLK-7 kinase activity (33P transfer from ATP to myelin basic protein). Type of test: biochemical. The settings on record: recombinant GST-tagged MLK-7 at 1 nm, 30 uM ATP, 5 uM MBP substrate, 2 hours room temperature; read-out: MLK7 IC50. The source says: In Vitro Assay of Purified Mixed Lineage Kinase 7 (MLK-7) Activity:
Briefly, recombinant glutathione-s-transferase (GST) tagged MLK-7 is expressed in Sf9 cells using a recombinant baculovirus created using baculovirus transfer vector pVL1392 modified to contain a GST and histidine tag. The recombinant protein is purified over a glutathione column and subsequently used for in vitro kinase assays with myelin basic protein (MBP) as the substrate for phosphorylation. The in vitro kinase reaction is run with recombinant MLK-7 at 1 nm and various concentrations of test compound in a reaction mixture containing 2 mM DTT, 30 uM ATP, 5 mM MgCl2, 5 uM MBP, 4% DMSO, 5 uCi 33P in 44 mM HEPES, (pH 7.4). The reaction is carried out for 2 hours at room temperature and then stopped by the addition of phosphoric acid to 5.5%. The phosphorylated MBP is collected on a filter and radioactivity associated with the membrane measured using a scintillation counter. Inhibitors are identified by the ability to reduce the transfer of radioactive phosphate from ATP to MBP compared to controls run without test compound.
IC50 values, defined as the concentration of test compound required to decrease the transfer of radioactive phosphate from ATP to MBP by 50%, are then determined. Ki values (which refers to the dissociation constant of an enzyme-antagonist complex and serves as an index of ligand binding) for each respective test compound can also be calculated by application of the Cheng-Prusoff equation as described in Cheng et al., Relationship Between The Inhibition Constant (Ki) and The Concentration of Inhibitor Which Causes 50% Inhibition (IC50) of an Enzymatic Reaction, Biochem. Pharmacol., 22: […]; (1973).
Representative compounds of the present invention have an IC50 in the MLK-7 kinase assay of ≦10,000 nM Table I (see infra.) provides IC50 data from the afore mentioned MLK-7 kinase assay for a representative sample of the exemplified compounds of the present invention.
On to `Nc1ccc(-c2ccc3c(-c4c(-c5ccccn5)nn5c4CCC5)ccnc3c2)cc1Cl` [Example 90, 2-Chloro-4-[4-(2-pyridin-2-yl-5,6-dihydro-4H-pyrrolo[1,2-b]pyrazol-3-yl)-quinolin-7-yl]-phenylamine Ditrifluoroacetic Acid], for which the IC50 was not above 100 nM.

Consider `Clc1cccc(-c2ccc3c(-c4c(-c5ccccn5)nn5c4CCC5)ccnc3c2)c1` [Example 11, 7-(3-Chlorophenyl)-4-(2-Pyridin-2-yl-5,6-dihydro-4H-pyrrolo[1,2-b]pyrazol-3-yl)quinoline Trifluoroacetic Acid], for which the IC50 was not above 100 nM.

On to `COc1ccc(-c2ccc3c(-c4c(-c5ccccn5)nn5c4CCC5)ccnc3c2)cc1` [Example 20, 7-(4-Methoxyphenyl)-4-(2-pyridin-2-yl-5,6-dihydro-4H-pyrrolo[1,2-b]pyrazol-3-yl)quinoline Trifluoroacetic Acid], for which the IC50 was not above 100 nM.

As for `Oc1ccccc1-c1ccc2c(-c3c(-c4ccccn4)nn4c3CCC4)ccnc2c1` [Example 5], the IC50 is not above 1000 nM.

On to `Oc1c(F)cc(-c2ccc3c(-c4c(-c5ccccn5)nn5c4CCC5)ccnc3c2)cc1Cl` [Example 91, 2-Chloro-6-fluoro-4-[4-(2-pyridin-2-yl-5,6-dihydro-4H-pyrrolo[1,2-b]pyrazol-3-yl)-quinolin-7-yl]-phenol Trifluoroacetic Acid], for which the IC50 was not above 100 nM.

`CN(C)C(=O)c1ccc(-c2ccc3c(-c4c(-c5ccccn5)nn5c4CCC5)ccnc3c2)cc1` [Example 136, N,N-Dimethyl-4-[4-(2-pyridin-2-yl-5,6-dihydro-4H-pyrrolo[1,2-b]pyrazol-3-yl)-quinolin-7-yl]-benzamide]: the IC50 is not above 100 nM.

Turning to `O=C(O)c1ccc(-c2ccc3c(-c4c(-c5ccccn5)nn5c4CCC5)ccnc3c2)cc1` [Example 41, 4-[4-(2-pyridin-2-yl-5,6-dihydro-4H-pyrrolo[1,2-b]pyrazol-3-yl)quinolin-7-yl]benzoic Acid Trifluoroacetic Acid], the IC50 was not above 100 nM.

Take `Clc1ccc(-c2ccc3c(-c4c(-c5ccccn5)nn5c4CCC5)ccnc3c2)cc1` [Example 12, 7-(4-Chlorophenyl)-4-(2-pyridin-2-yl-5,6-dihydro-4H-pyrrolo[1,2-b]pyrazol-3-yl)quinoline Trifluoroacetic Acid]: the IC50 is not above 100 nM.

As to `NCCCC[C@H](NC(=O)c1ccc(-c2ccc3c(-c4c(-c5ccccn5)nn5c4CCC5)ccnc3c2)cc1)C(=O)O` [Example 143, 6-Amino-2(S)-{4-[4-(2-pyridin-2-yl-5,6-dihydro-4H-pyrrolo[1,2-b]pyrazol-3-yl)-quinolin-7-yl]-benzoylamino}-hexanoic acid, Ditrifluoroacetic Acid Salt], the 50% inhibitory concentration (IC50) was not above 100 nM.

With `NCCc1ccc(-c2ccc3c(-c4c(-c5ccccn5)nn5c4CCC5)ccnc3c2)cc1` [Example 76, 2-{4-[4-(2-pyridin-2-yl-5,6-dihydro-4H-pyrrolo[1,2-b]pyrazol-3-yl)quinolin-7-yl]phenyl}ethylamine Ditrifluoroacetic Acid], the IC50 is not above 100 nM.

In the case of `CNC(=O)c1ccc(-c2ccc3c(-c4c(-c5ccccn5)nn5c4CCC5)ccnc3c2)cc1` [Example 138, N-Methyl-4-[4-(2-pyridin-2-yl-5,6-dihydro-4H-pyrrolo[1,2-b]pyrazol-3-yl)-quinolin-7-yl]-benzamide], the IC50 was not above 100 nM.

Regarding `FCCOc1ccc(-c2ccc3c(-c4c(-c5ccccn5)nn5c4CCC5)ccnc3c2)cc1` [Example 119, 7-[4-(2-Fluoroethoxy)phenyl]-4-(2-pyridin-2-yl-5,6-dihydro-4H-pyrrolo[1,2-b]pyrazol-3-yl)quinoline Trifluoroacetic Acid], the IC50 was not above 100 nM.

On to `O=C(O)c1cc(C(=O)O)cc(-c2ccc3c(-c4c(-c5ccccn5)nn5c4CCC5)ccnc3c2)c1` [Example 79, 5-[4-(2-Pyridin-2-yl-5,6-dihydro-4H-pyrrolo[1,2-b]pyrazol-3-yl)quinolin-7-yl]isophthalic Acid Trifluoroacetic Acid], for which the IC50 is not above 10000 nM.

Consider `CCSc1ccc(-c2ccc3c(-c4c(-c5ccccn5)nn5c4CCC5)ccnc3c2)cc1` [Example 24, 7-(4-Ethylsulfanylphenyl)-4-(2-pyridin-2-yl-5,6-dihydro-4H-pyrrolo[1,2-b]pyrazol-3-yl)quinoline Trifluoroacetic Acid], for which the IC50 was not above 1000 nM.

For the compound `O=[N+]([O-])c1ccccc1-c1ccc2c(-c3c(-c4ccccn4)nn4c3CCC4)ccnc2c1` [Example 36, 7-(2-Nitrophenyl)-4-(2-pyridin-2-yl-5,6-dihydro-4H-pyrrolo[1,2-b]pyrazol-3-yl)quinoline Trifluoroacetic Acid], the IC50 is not above 1000 nM.

Turning to `Cc1csc(-c2ccc3c(-c4c(-c5ccccn5)nn5c4CCC5)ccnc3c2)c1` [Example 2, 7-(4-methylthiophen-2-yl)-4-(2-pyridin-2-yl-5,6-dihydro-4H-pyrrolo[1,2-b]pyrazol-3-yl)quinoline Trifluoroacetic Acid], the IC50 was not above 100 nM.

As to `COc1ccc(-c2ccc3c(-c4c(-c5ccccn5)nn5c4CCC5)ccnc3c2)cc1C` [Example 32, 7-(4-Methoxy-3-methylphenyl)-4-(2-Pyridin-2-yl-5,6-dihydro-4H-pyrrolo[1,2-b]pyrazol-3-yl)quinoline Trifluoroacetic Acid], the IC50 was not above 1000 nM.

On to `CC(C)(C)OC(=O)N1CCCC(NC(=O)c2ccc(-c3ccc4c(-c5c(-c6ccccn6)nn6c5CCC6)ccnc4c3)cc2)C1` (stereo not shown) [Example 130, 3-{4-[4-(2-Pyridin-2-yl-5,6-dihydro-4H-pyrrolo[1,2-b]pyrazol-3-yl)-quinolin-7-yl]-benzoylamino}-piperidine-1-carboxylic Acid tert-Butyl Ester], for which the IC50 is not above 100 nM.

`c1ccc(-c2nn3c(c2-c2ccnc4cc(-c5nccs5)ccc24)CCC3)nc1` [Example 66, 4-(2-Pyridin-2-yl-5,6-dihydro-4H-pyrrolo[1,2-b]pyrazol-3-yl)-7-thiazol-2-yl-quinoline Trifluoroacetic Acid]: the IC50 is not above 100 nM.

`c1ccc(-c2nn3c(c2-c2ccnc4cc(-c5ccc(OCCCN6CCCC6)cc5)ccc24)CCC3)nc1` [Example 115, 4-(2-Pyridin-2-yl-5,6-dihydro-4H-pyrrolo[1,2-b]pyrazol-3-yl)-7-[4-(3-pyrrolidin-1-yl-propoxy)phenyl] quinoline Ditrifluoroacetic Acid]: the IC50 is not above 100 nM.

As to `O=S1(=O)CCN(c2ccc3c(-c4c(-c5ccccn5)nn5c4CCC5)ccnc3c2)CC1` [Example 104, 7-(1,1-Dioxo-1λ^6-thiomorph-olin-4-yl)-4-(2-pyridin-2-yl-5,6-dihydro-4H-pyrrolo[1,2-b]pyrazol-3-yl)-quinoline], the IC50 is not above 10000 nM.

In the case of `O=S1(=O)Cc2ccc(-c3ccc4c(-c5c(-c6ccccn6)nn6c5CCC6)ccnc4c3)cc2C1` [Example 81], the IC50 was not above 100 nM.

Regarding `O=C(O)c1ccccc1-c1ccc2c(-c3c(-c4ccccn4)nn4c3CCC4)ccnc2c1` [Example 44, 2-[4-(2-pyridin-2-yl-5,6-dihydro-4H-pyrrolo[1,2-b]pyrazol-3-yl)quinolin-7-yl]benzoic Acid Trifluoroacetic Acid], the IC50 was not above 10000 nM.

Consider `O=C(NCCN1CCOCC1)c1ccc(-c2ccc3c(-c4c(-c5ccccn5)nn5c4CCC5)ccnc3c2)cc1` [Example 132, N-(2-Morpholin-4-yl-ethyl)-4-[4-(2-pyridin-2-yl-5,6-dihydro-4H-pyrrolo[1,2-b]pyrazol-3-yl)-quinolin-7-yl]-benzamide], for which the IC50 was not above 100 nM.

Regarding `CC(C)(C)OC(=O)N1CCN(c2ccc3c(-c4c(-c5ccccn5)nn5c4CCC5)ccnc3c2)CC1` [Example 102, 4-[4-(2-Pyridin-2-yl-5,6-dihydro-4H-pyrrolo[1,2-b]pyrazol-3-yl)-quinolin-7-yl]-piperazine-1-carboxylic Acid tert-Butyl Ester], the IC50 is not above 10000 nM.

`NS(=O)(=O)c1ccccc1-c1ccc2c(-c3c(-c4ccccn4)nn4c3CCC4)ccnc2c1` [Example 97, 2-[4-(2-Pyridin-2-yl-5,6-dihydro-4H-pyrrolo[1,2-b]pyrazol-3-yl)-quinolin-7-yl]-benzenesulfonamide]: the IC50 was not above 1000 nM.

Turning to `CC(C)(C)OC(=O)CC[C@H](NC(=O)c1ccc(-c2ccc3c(-c4c(-c5ccccn5)nn5c4CCC5)ccnc3c2)cc1)C(=O)OC(C)(C)C` [Example 135, 2(S)-{4-[4-(2-Pyridin-2-yl-5,6-dihydro-4H-pyrrolo[1,2-b]pyrazol-3-yl)-quinolin-7-yl]-benzoylamino}-pentanedioic Acid Di-tert-Butyl Ester], the IC50 was not above 1000 nM.

Consider `Nc1nc2ccc(-c3ccc4c(-c5c(-c6ccccn6)nn6c5CCC6)ccnc4c3)cc2s1` [Example 94, 6-[4-(2-Pyridin-2-yl-5,6-dihydro-4H-pyrrolo[1,2-b]pyrazol-3-yl)-quinolin-7-yl]-benzothiazol-2-yl amine Tris trifluoroacetic Acid], for which the IC50 is not above 100 nM.

One may read the IC50 as the point on the concentration scale where inhibition reaches its midpoint.
